Key:
[1] = Oral bioavailability in C57 mouse; type: ADME, organism-based; details: in vivo
[2] = Apparent permeability from apical to basolateral side of human Caco2 cells; type: ADME, cell-based; details: Caco-2, read-out: permeability
Hepatocyte [3] = experiment: Intrinsic clearance in rat hepatocytes assessed per 1 x 10^6 cells; type: ADME, cell-based, Liver
[4] = Apparent permeability from basolateral to apical side of human Caco2 cells; type: ADME, cell-based; details: Caco-2, read-out: permeability
Liver microsomes [5] = experiment: Intrinsic clearance in human liver microsomes assessed per mg of protein; type: ADME, Microsome
[6] = Intrinsic clearance in mouse liver microsomes assessed per mg of protein; type: ADME, Microsome
Liver microsomes [7] = experiment: Intrinsic clearance in rat liver microsomes assessed per mg of protein; type: ADME, Microsome
Hepatocyte [8] = experiment: Intrinsic clearance in human hepatocytes assessed per 1 x 10^6 cells; type: ADME, cell-based, Liver
[9] = Plasma clearance in C57 mouse; type: ADME, organism-based
[10] = Half life in C57 mouse; type: ADME, organism-based; details: in vivo
[11] = Volume of distribution at steady state in C57 mouse; type: ADME, organism-based; details: in vivo, read-out: Vdss

| bioavailability [1] [%] | Papp A→B [2] [×10⁻⁶ cm/s] | clearance (Hepatocyte [3]) [µL/min/1e6 cells] | Papp B→A [4] [×10⁻⁶ cm/s] | Structure (SMILES) | further results |
| --- | --- | --- | --- | --- | --- |
| > 75 |  |  |  | Nc1nccc2cc(O[C@H]3CCCNC3)ccc12 |  |
|  | 11.6 | 21 | 17.6 | c1ccc(CN2CCC[C@H](Oc3ccc4cnccc4c3)C2)cc1 |  |
|  | 14.3 | < 6 | 11.2 | O=c1[nH]ccc2cc(O[C@H]3CCCNC3)ccc12 | clearance (Liver microsomes [5]): < 12 µL/min/mg; clearance [6]: 17 µL/min/mg; clearance (Liver microsomes [7]): 24 µL/min/mg; clearance (Hepatocyte [8]): 2 µL/min/1e6 cells |
| 57 |  |  |  | Nc1nccc2c(S(=O)(=O)N3CCCNCC3)cccc12 | clearance [9]: 34 mL/min/kg; half-life [10]: 45 min; Vd [11]: 2.4 L/kg |

From ChEMBL document CHEMBL1667835, “Optimisation of 6-substituted isoquinolin-1-amine based ROCK-I inhibitors” (Bioorg Med Chem Lett, 2011)
